Read-outs that look alike come from different tables or passages of the source.
Experiments:
[1] = biological target: T1, dopamine transporter (DAT) (Rattus norvegicus (Rat), UniProt P23977); test: [3H]dopamine (DA) uptake inhibition in rat brain (caudate) synaptosomes; assay type: biochemical
[2] = biological target: serotonin transporter (SERT) (Rattus norvegicus (Rat), UniProt P31652); test: [3H]serotonin (5-HT) uptake inhibition in rat brain synaptosomes; assay type: biochemical; details: for Emax: read-out: SERT Uptake Emax
Procedure: Uptake inhibition assay for the serotonin transporter was conducted in rat brain synaptosomes as described elsewhere with minor modifications (Rothman et al., Synapse 39, 32-41 (2001)). Freshly removed whole brain minus cerebellum and caudate was homogenized in 10% ice-cold sucrose with 12 strokes of a hand-held Potter-Elvehjem homogenizer followed by centrifugation at 1000×g for 10 min. The supernatants were saved on ice and used immediately. Transporter activity at SERT was assessed using 5 nM [^3H]serotonin. The assay buffer was Krebs-phosphate buffer containing 154.4 mM NaCl, 2.9 mM KCl, 1.1 mM CaCl2, 0.83 mM MgCl2, 5 mM glucose, 1 mg/mL ascorbic acid, and 50 μM pargyline. […] Uptake inhibition assays were conducted at 25° C. and were initiated by adding 100 μL of tissue to 900 μL assay buffer containing test drug and [^3H]serotonin. Test drugs were diluted in assay buffer containing 1 mg/mL bovine serum albumin. Nonspecific uptake was measured by incubating in the presence of 10 μM indatraline. The reactions were stopped after 30 min by rapid vacuum filtration with a cell harvester (BRANDEL) over GF/B filters (Whatman) presoaked in wash buffer maintained at 25° C. (10 mM Tris-HCl, pH 7.4/150 mM NaCl). Filters were rinsed with 6 mL wash buffer and retained tritium was quantified by a MicroBeta liquid scintillation counter (PerkinElmer) after overnight extraction in 0.6 mL of liquid scintillation cocktail (Cytoscint, ICN). The data from three experiments were pooled and fit to a dose-response curve equation (using Kaleidagraph), to yield an Emax and EC50 value.

[3] = biological target: norepinephrine transporter (NET) (Rattus norvegicus, UniProt Q63380); test: [3H]norepinephrine (NE) uptake inhibition in rat brain synaptosomes; assay type: biochemical; details: for Emax: read-out: NET Uptake Emax; for IC50: read-out: NET Uptake IC50, mean ± S.D., n = 3
Procedure: Uptake inhibition assay for the norepinephrine transporter was conducted in rat brain synaptosomes as described elsewhere with minor modifications (Rothman et al., Synapse 39, 32-41 (2001)). Freshly removed whole brain minus cerebellum and caudate was homogenized in 10% ice-cold sucrose with 12 strokes of a hand-held Potter-Elvehjem homogenizer followed by centrifugation at 1000×g for 10 minutes. The supernatants were saved on ice and used immediately. Transporter activity at NET was assessed using 10 nM [^3H]norepinephrine. The assay buffer was Krebs-phosphate buffer containing 154.4 mM NaCl, 2.9 mM KCl, 1.1 mM CaCl2, 0.83 mM MgCl2, 5 mM glucose, 1 mg/mL ascorbic acid, and 50 μM pargyline. […] Uptake inhibition assays were conducted at 37° C. and were initiated by adding 100 μL of tissue to 900 μL assay buffer containing test drug and [^3H]norepinephrine. Test drugs were diluted in assay buffer containing 1 mg/mL bovine serum albumin. Nonspecific uptake was measured by incubating in the presence of 10 μM indatraline. The reactions were stopped after 10 minutes by rapid vacuum filtration with a cell harvester (BRANDEL) over GF/B filters (Whatman) presoaked in wash buffer maintained at 25° C. (10 mM Tris-HCl, pH 7.4/150 mM NaCl). Filters were rinsed with 6 mL wash buffer and retained tritium was quantified by a MicroBeta liquid scintillation counter (PerkinElmer) after overnight extraction in 0.6 mL of liquid scintillation cocktail (Cytoscint, ICN). The data from three experiments were pooled and fit to a dose-response curve equation (using Kaleidagraph), to yield an Emax and EC50 value.

DAT [4] = biological target: T2, DAT (Rattus norvegicus (Rat), UniProt P23977); test: Inhibition of [3H]WIN35428 binding to rat caudate DAT; details: for Emax / IC50 / DAT Binding Emax / DAT Binding IC50: mean ± S.D., n = 3; for IC50 / DAT Binding IC50: unit as printed in head (text gives 1100 nM where table prints 1.1)
Procedure: All of the test compounds were synthesized as described herein. […] The data from three experiments were pooled and fit to a dose-response curve equation (using KaleidaGraph; Synergy Software, Reading, Pa.) to yield an Emax and IC50 value. […] Selected compounds were also tested for their ability to inhibit [^3H]WIN35428 binding to rat caudate DAT.

[5] = biological target: T1, dopamine transporter (DAT); test: Dopamine transporter-mediated [3H]MPP+ release (d-amphetamine-induced, shift experiments) in rat caudate synaptosomes; assay type: biochemical; details: for Apparent Kc: [Blocker]/((EC50-2/EC50-1) − 1); for Emax: read-out: d-Amphetamine Emax in presence of blocker
DAT [6] = biological target: T2, DAT; test: d-amphetamine-induced, DAT-mediated [3H]DA release (shift experiments); assay type: biochemical
[7] = mean ± S.D., n = 3, read-out: DAT Uptake Emax
[8] = values in Table 9, read-out: Emax for DAT Uptake Inhibition
[9] = [3H]MPP+ release, blocker concentration per row, mean ± S.D., n = 3
[10] = rat brain synaptosomes, 5 nM [3H]serotonin, mean ± SD

T2 sequence (P23977 whole entry): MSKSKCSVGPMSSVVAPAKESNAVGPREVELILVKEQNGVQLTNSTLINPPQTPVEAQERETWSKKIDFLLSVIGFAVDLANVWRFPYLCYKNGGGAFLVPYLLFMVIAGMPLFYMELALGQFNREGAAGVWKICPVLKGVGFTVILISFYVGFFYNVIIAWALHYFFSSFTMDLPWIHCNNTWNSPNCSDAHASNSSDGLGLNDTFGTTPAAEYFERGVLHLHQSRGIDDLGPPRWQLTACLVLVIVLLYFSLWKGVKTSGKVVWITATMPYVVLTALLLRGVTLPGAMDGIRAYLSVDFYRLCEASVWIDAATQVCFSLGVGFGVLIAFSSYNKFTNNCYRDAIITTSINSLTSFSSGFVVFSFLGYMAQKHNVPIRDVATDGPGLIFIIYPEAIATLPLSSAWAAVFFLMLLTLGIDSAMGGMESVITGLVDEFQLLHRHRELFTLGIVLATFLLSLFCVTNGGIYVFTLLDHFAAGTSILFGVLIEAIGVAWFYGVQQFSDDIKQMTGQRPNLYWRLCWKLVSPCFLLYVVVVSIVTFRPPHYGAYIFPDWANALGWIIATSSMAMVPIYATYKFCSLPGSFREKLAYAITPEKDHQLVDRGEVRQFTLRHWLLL
T1 sequence (P23977 whole entry): as above
Sequence of norepinephrine transporter (NET) (Q63380 1-617): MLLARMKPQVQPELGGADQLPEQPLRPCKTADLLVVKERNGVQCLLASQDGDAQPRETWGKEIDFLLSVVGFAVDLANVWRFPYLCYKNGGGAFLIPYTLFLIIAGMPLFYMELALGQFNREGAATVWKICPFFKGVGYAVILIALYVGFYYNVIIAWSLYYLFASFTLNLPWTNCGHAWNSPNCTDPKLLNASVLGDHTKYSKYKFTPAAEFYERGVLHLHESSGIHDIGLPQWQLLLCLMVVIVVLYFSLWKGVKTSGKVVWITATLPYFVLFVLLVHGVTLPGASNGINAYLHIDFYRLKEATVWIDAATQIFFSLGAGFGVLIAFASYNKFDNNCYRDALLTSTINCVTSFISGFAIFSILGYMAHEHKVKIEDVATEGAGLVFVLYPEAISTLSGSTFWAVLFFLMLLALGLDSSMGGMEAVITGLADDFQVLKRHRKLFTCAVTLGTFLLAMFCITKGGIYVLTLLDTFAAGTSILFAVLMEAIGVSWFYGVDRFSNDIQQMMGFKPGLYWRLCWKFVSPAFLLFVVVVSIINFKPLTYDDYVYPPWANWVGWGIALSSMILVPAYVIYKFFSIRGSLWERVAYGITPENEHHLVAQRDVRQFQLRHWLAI
Sequence of serotonin transporter (SERT) (P31652 whole entry): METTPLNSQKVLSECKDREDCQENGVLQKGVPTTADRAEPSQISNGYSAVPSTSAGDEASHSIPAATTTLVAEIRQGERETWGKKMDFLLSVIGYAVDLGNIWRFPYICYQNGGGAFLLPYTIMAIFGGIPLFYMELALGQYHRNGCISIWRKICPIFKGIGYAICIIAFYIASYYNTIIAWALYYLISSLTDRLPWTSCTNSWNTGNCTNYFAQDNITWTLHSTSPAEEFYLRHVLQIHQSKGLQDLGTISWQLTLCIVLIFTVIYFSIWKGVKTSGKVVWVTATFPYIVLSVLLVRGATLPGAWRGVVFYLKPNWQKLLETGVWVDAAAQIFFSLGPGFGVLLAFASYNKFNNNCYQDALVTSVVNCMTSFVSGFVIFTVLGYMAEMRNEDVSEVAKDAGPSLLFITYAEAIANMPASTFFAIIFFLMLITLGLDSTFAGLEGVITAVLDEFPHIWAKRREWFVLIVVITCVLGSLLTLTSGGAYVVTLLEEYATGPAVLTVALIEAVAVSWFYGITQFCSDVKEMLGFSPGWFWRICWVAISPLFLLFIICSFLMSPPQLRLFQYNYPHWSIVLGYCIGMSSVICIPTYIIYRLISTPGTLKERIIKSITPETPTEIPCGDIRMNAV

Row | Compound | Emax [1, 7] | Emax [1, 8] | Emax ([2]; mean ± S.D., n = 3) | Emax [3] | IC50 [3] | Emax (DAT [4]; [3H]WIN35428) | IC50 (DAT [4]; [3H]WIN35428) | Apparent Kc ([5]; [3H]MPP+ release) | Emax [5, 9] | other results
1 | CN(C)c1ncc(-c2nc(NCC(c3ccccc3)c3ccccc3)c3ccccc3n2)cn1 [SRI-29153] | 73 ± 1% | 73% | 55 ± 5% | 73 ± 4% | 181 ± 46 nM | 76 ± 2% | 1700 ± 200 nM | 1820 nM | 101 ± 3% | 
2 | Cc1cc2nccn2cc1-c1nc(NCC(c2ccccc2)c2ccc[nH]2)c2ccccc2n1 (stereo not shown) [SRI-31040] | 69 ± 1% | 69% | 54 ± 2% | 70 ± 4% | 11 ± 4 nM | 91 ± 7% | 3740 ± 1100 nM | 55 nM | 105 ± 3% | 
3 | CS(=O)(=O)Nc1ccc(-c2nc(NCC(c3ccccc3)c3ccncc3)c3ccccc3n2)cc1 (stereo not shown) [Compound 10, N-(4-(4-((2-phenyl-2-(pyridin-4-yl)ethyl)amino)quinazolin-2-yl)phenyl)methanesulfonamide] |  |  | 56 ± 1% | 76 ± 2% | 44 ± 6 nM |  |  |  | 103 ± 3% | DAT Uptake Emax ([1]; mean ± S.D., n = 3): 71 ± 1%; DA Uptake Emax ([1]; rat caudate synaptosomes, 5 nM [3H]dopamine, mean ± SD): 71 ± 1 % I; 5HT Uptake Emax [2, 10]: 56 ± 1 % I; EC50 [2, 10]: 8.7 ± 0.9 nM; NE Uptake Emax ([3]; rat brain synaptosomes, 10 nM [3H]norepinephrine, mean ± SD): 76 ± 2 % I; EC50 ([3]; read-out: NE Uptake EC50, rat brain synaptosomes, 10 nM [3H]norepinephrine, mean ± SD): 44 ± 6 nM; DAT Binding Emax (DAT [4]; [3H]WIN35428): 52 ± 6%; Emax at 0.125 µM ([5]; read-out: D-Amphetamine Emax in presence of compound, [3H]MPP+ release, compound concentration 125 nM, mean ± SD): 103 ± 3%
4 | CN(C)c1ccc(-c2nc(NCC(c3ccccc3)c3ccccc3)c3ccccc3n2)cn1 [SRI-29779] | 63 ± 3% | 63% | 51 ± 2% | 71 ± 6% | 147 ± 63 nM | 83 ± 3% | 1200 ± 200 nM | 912 nM | 99 ± 2% | 
5 | CN(C)c1ccc(-c2nc(NCC(c3ccccc3)c3ccccc3)c3ccccc3n2)cc1 [Compound 51, 2-(4-(dimethylamino)phenyl)-N-(2,2-diphenylethyl)quinazolin-4-amine] | 70 ± 3% | 70% | 44 ± 4% | 68 ± 7% | 143 ± 61 nM | 100 ± 3% |  |  | 101 ± 2% | DAT binding IC50 weaker than IC50 for inhibition of DAT uptake (DAT [4]; binding IC50 / uptake IC50): 155 fold
6 | Cl.Fc1ccc2c(NCC(c3ccccc3)c3ccccc3)nc(-c3ccc4nccn4c3)nc2c1 [SRI-31034] |  |  |  | 63 ± 3% | 94 ± 22 nM |  |  | 3200 nM |  | Emax ([1]; read-out: DAT Uptake Emax): 69 ± 1%; Emax ([1]; read-out: Emax for DAT Uptake Inhibition): 69%; Emax [2]: 49 ± 2%; DAT Binding Emax (DAT [4]; [3H]WIN35428): Inactive; DAT Binding IC50 (DAT [4]; [3H]WIN35428): Inactive; Emax [5]: 104 ± 5%
7 | c1ccc(C(CNc2nc(-c3ccc4nccn4c3)nc3ccccc23)c2ccccc2)cc1 [SRI-29574] | 68 ± 2% | 68% | 52 ± 2% | 72 ± 4% | 52 ± 15 nM |  |  | -368 nM | 103 ± 3% | Efficacy of [3H]DA (DAT) uptake inhibition, in words [1]: partially inhibited; Inhibition of DAT binding, in words (DAT [4]; [3H]WIN35428): inactive; DAT Binding Emax (DAT [4]; [3H]WIN35428): Inactive; DAT Binding IC50 (DAT [4]; [3H]WIN35428): Inactive; Effect on d-amphetamine-induced DAT-mediated [3H]MPP+ release curve, in words ([5]; blocking concentration ~25 times DAT uptake IC50): increased EC50 and decreased Emax; Apparent Kc (DAT [6]; [Blocker]/((EC50-2/EC50-1) − 1)): -239 nM; Emax (DAT [6]; read-out: d-Amphetamine Emax in presence of blocker, blocker concentration per row, mean ± S.D., n = 3): 95 ± 2%
8 | Cc1cc2nccn2cc1-c1nc(NCC(c2ccccc2)c2ccncc2)c2ccccc2n1 (stereo not shown) [SRI-31142] | 72 ± 2% | 72% | 48 ± 1% | 61 ± 2% | 17 ± 4 nM | 92 ± 4% | 2340 ± 450 nM | 400 nM | 103 ± 3% | 
9 | c1ccc(C(CNc2nc(-c3cnc4nccn4c3)nc3ccccc23)C2CCCCC2)cc1 (stereo not shown) [SRI-30517] | 70 ± 1% | 70% | 54 ± 1% | 70 ± 2% | 95 ± 12 nM | 43 ± 4% | 160 ± 80 nM | 1600 nM | 104 ± 4% | 
10 | Cc1cc2nccn2cc1-c1nc(NCC(O)(c2ccccc2)c2ccccc2)c2ccccc2n1 [SRI-31143] | 69 ± 1% | 67% | 51 ± 2% | 69 ± 4% | 16 ± 5 nM | 52 ± 8% | 3390 ± 1990 nM | 46 nM | 104 ± 4% | 
11 | c1ccc(C(CNc2nc(-c3cnc4nccn4c3)nc3ccccc23)c2ccccc2)cc1 [SRI-29991] | 68 ± 1% | 68% | 51 ± 1% | 69 ± 2% | 63 ± 9 nM | 18 ± 4% | 1220 ± 1120 nM | -1070 nM | 102 ± 2% | 
12 | c1ccc(C(CNc2nc(-c3cccnc3)nc3ccccc23)c2ccccc2)cc1 [SRI-29072] | 71 ± 3% | 71% | 56 ± 9% | 62 ± 5% | 5850 ± 1750 nM | 77 ± 2% | 2700 ± 300 nM | 25830 nM | 96 ± 3% | IC50 ([1]; mean ± S.D., n = 3): 212 ± 49 nM; IC50 ([2]; mean ± S.D., n = 3): 6380 ± 2640 nM
13 | Cc1cc2nccn2cc1-c1nc(NCC(c2ccccc2)c2ccccc2)c2ccccc2n1 [SRI-30827] | 63 ± 2% | 63% | 58 ± 3% | 67 ± 3% | 21 ± 7 nM | 79 ± 3% | 1990 ± 330 nM | 267 nM | 104 ± 3% | 
14 | c1ccc(C(CNc2nc(-c3ccc4nccn4c3)nc3ccccc23)c2ccc[nH]2)cc1 (stereo not shown) [SRI-30826] | 64 ± 2% | 64% | 56 ± 2% | 81 ± 2% | 88 ± 15 nM | 42 ± 3% | 1280 ± 400 nM | 1600 nM | 105 ± 4% | 
15 | c1ccc(C(CNc2nc(-c3ccc4ncnn4c3)nc3ccccc23)c2ccccc2)cc1 [SRI-30522] | 63 ± 1% | 63% | 35 ± 3% | 40 ± 5% | 86 ± 55 nM |  |  |  | 105 ± 4% | DAT Binding Emax (DAT [4]; [3H]WIN35428): Inactive; DAT Binding IC50 (DAT [4]; [3H]WIN35428): Inactive
16 | c1ccc(C(CNc2nc(-c3ccc4[nH]ccc4c3)nc3ccccc23)c2ccccc2)cc1 [SRI-29155] | 74 ± 1% | 74% | 54 ± 2% | 70 ± 3% | 290 ± 52 nM | 87 ± 4% | 900 ± 200 nM | 456 nM | 94 ± 2% | 
17 | c1ccc(C(CCNc2nc(-c3cccnc3)nc3ccccc23)c2ccccc2)cc1 [SRI-29070] | 66 ± 4% | 66% | 48 ± 3% | 64 ± 10% | 1740 ± 1150 nM | 71 ± 4% | 1800 ± 400 nM | 7050 nM | 98 ± 1% | IC50 ([1]; mean ± S.D., n = 3): 174 ± 58 nM; IC50 ([2]; mean ± S.D., n = 3): 699 ± 164 nM

— US10087148B2, “Quinazolines as biogenic amine transport modulators” (THE UNITED STATES OF AMERICA AS REPRESENTED BY THE …, priority 2014, dated 2018)
